Assays:
SETFA (giant foxtail) = assay: Pre-emergence herbicidal activity, warm season; type: in vivo, Setaria faberi; settings: GR80 = lowest tested rate (300, 100, 30, 10 g/ha) with 80% or greater inhibition; approx. 14 days after treating; 30/21° C.
How it was run: (§1)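 Seeds sown in sterilised fertilised topsoil received surface-applied compound in 50:50 acetone/water, typically at 300, 100, 30 and 10 g/ha, then greenhouse-grown at 30/21° C (warm-season species) or 18/13° C (cool-season species). Percent inhibition versus untreated plants was scored at about 14 days, giving GR80; an asterisk marks activity short of 80% at the top rate.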

POROL (common purslane) = assay: Pre-emergence herbicidal activity, warm season; type: in vivo, Portulaca oleracea; settings: GR80 = lowest tested rate (300, 100, 30, 10 g/ha) with 80% or greater inhibition; approx. 14 days after treating; 30/21° C.
How it was run: as §1

SORVU (shattercane) = assay: Pre-emergence herbicidal activity, warm season; type: in vivo, Sorghum vulgare; settings: GR80 = lowest tested rate (300, 100, 30, 10 g/ha) with 80% or greater inhibition; approx. 14 days after treating; 30/21° C.
How it was run: as §1

PANDI (fall panicum) = assay: Pre-emergence herbicidal activity, warm season; type: in vivo, Panicum dichotomiflorum; settings: GR80 = lowest tested rate (300, 100, 30, 10 g/ha) with 80% or greater inhibition; approx. 14 days after treating; 30/21° C.
How it was run: as §1

SINAR (wild mustard) = assay: Pre-emergence herbicidal activity, cool season; type: in vivo, Sinapis arvensis; settings: lowest tested rate with 80% or greater inhibition; rates 300, 100, 30, 10 g/ha; about 14 days
How it was run: as §1

[1] = test system: PANMI (wild proso millet); assay: Pre-emergence herbicidal activity, warm season; type: in vivo, Panicum miliaceum; settings: GR80 = lowest tested rate (300, 100, 30, 10 g/ha) with 80% or greater inhibition; approx. 14 days after treating; 30/21° C.
How it was run: (§2)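 Each pot received seeds on sterilized fertilized topsoil, a soil cover, and a surface spray of compound (300–10 g/ha, acetone/water 50:50). Plants grew about 14 days at 30/21 °C (PANMI, DIGSA) or 18/13 °C (ALOMY, POLCO) before inhibition was rated against untreated pots to give GR80.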

[2] = test system: AGSST (creeping bentgrass); assay: Pre-emergence herbicidal activity, cool season; type: in vivo, Agrostis stolonifera; settings: GR80 = lowest tested rate (300, 100, 30, 10 g/ha) with 80% or greater inhibition; approx. 14 days after treating; 18/13° C.
How it was run: as §1

AVEFA (wild oat) = assay: Pre-emergence herbicidal activity, cool season; type: in vivo, Avena fatua; settings: GR80 = lowest tested rate (300, 100, 30, 10 g/ha) with 80% or greater inhibition; approx. 14 days after treating; 18/13° C.
Experimental: (§3) Tables 5 to 8 summarize results of tests conducted as described below to determine the pre-emergence herbicidal activity, in the form of a GR80 value, of illustrative compounds of this invention. […] Compounds of the invention were typically applied at rates of 300, 100, 30, and 10 g/ha. Where herbicidal activity was evident but 80% inhibition was not achieved at the highest rate tested, an asterisk (*) is shown in the following tables.
(§4) The pre-emergence tests were conducted by the following procedure. Topsoil was sieved to pass through a 1.27 cm screen. Fertilizer was added to the topsoil and the mixture was then sterilized by heating. The topsoil mixture was placed in a pot and compacted to a depth of 1.0 to 1.25 cm from the top of the pot. Seeds of each of several monocotyledonous and dicotyledonous annual plant species were placed on top of the soil. Additional soil was subsequently placed over the seeds to level-fill the pot. A known amount of each test compound dissolved or suspended in an appropriate organic solvent was diluted with a 50:50 mix of acetone and water and applied to the surface of the soil. After treatment the plants were placed in a greenhouse where they received 0.64 cm of overhead irrigation. All subsequent watering consisted of a light overhead mist and/or subirrigation as needed for germination and growth. Tables 5 and 6 below relate to warm season plant species which were placed after pre-emergence treatment in a greenhouse with a 30/21° C. day/night temperature regime. Tables 7 and 8 below relates to cool season plant species placed after pre-emergence treatment in a greenhouse or growth chamber with an 18/13° C. day/night temperature regime.
(§5) Approximately 14 days after planting and treating, the plants were observed and herbicidal efficacy recorded as percent inhibition by comparison with untreated plants.
(§6) The plant species usually regarded as weeds which were utilized in the tests are identified in the tables below according to the following legend, in which “d” indicates a dicotyledonous species and “m” a monocotyledonous species. All monocotyledonous species included in the tests herein are grasses.

[3] = test system: BRAPP (broadleaf signalgrass); assay: Pre-emergence herbicidal activity, warm season; type: in vivo, Brachiaria platyphylla; settings: GR80 = lowest tested rate (300, 100, 30, 10 g/ha) with 80% or greater inhibition; approx. 14 days after treating; 30/21° C.
How it was run: as §1

SETVI (green foxtail) = assay: Pre-emergence herbicidal activity, cool season; type: in vivo, Setaria viridis; settings: GR80 = lowest tested rate (300, 100, 30, 10 g/ha) with 80% or greater inhibition; approx. 14 days after treating; 18/13° C.
How it was run: as §1

ECHCG (barnyardgrass) = assay: Pre-emergence herbicidal activity, warm season; type: in vivo, Echinochloa crus-galli; settings: GR80 = lowest tested rate (300, 100, 30, 10 g/ha) with 80% or greater inhibition; approx. 14 days after treating; 30/21° C.
How it was run: as §1

SASKR (russian thistle) = assay: Pre-emergence herbicidal activity, cool season; type: in vivo, Salsola kali; settings: lowest tested rate with 80% or greater inhibition; rates 300, 100, 30, 10 g/ha; about 14 days
How it was run: as §1

POLCO (wild buckwheat) = assay: Pre-emergence herbicidal activity, cool season; type: in vivo, Polygonum convolvulus; settings: lowest tested rate with 80% or greater inhibition; rates 300, 100, 30, 10 g/ha; about 14 days
How it was run: as §2

STEME (common chickweed) = assay: Pre-emergence herbicidal activity, cool season; type: in vivo, Stellaria media; settings: lowest tested rate with 80% or greater inhibition; rates 300, 100, 30, 10 g/ha; about 14 days
How it was run: as §1

[4] = test system: VERPE (creeping speedwell); assay: Pre-emergence herbicidal activity, cool season; type: in vivo, Veronica persicaria; settings: lowest tested rate with 80% or greater inhibition; rates 300, 100, 30, 10 g/ha; about 14 days
How it was run: as §1

[5] = test system: LAMPU (purple deadnettle); assay: Pre-emergence herbicidal activity, cool season; type: in vivo, Lamium purpureum; settings: lowest tested rate with 80% or greater inhibition; rates 300, 100, 30, 10 g/ha; about 14 days
How it was run: as §1

CONAR (field bindweed) = assay: Pre-emergence herbicidal activity, warm season; type: in vivo, Convolvulus arvensis; settings: GR80 = lowest tested rate (300, 100, 30, 10 g/ha) with 80% or greater inhibition; approx. 14 days after treating; 30/21° C.
Experimental: as §3, §4, §5, §6

[6] = test system: CHEAL (common lambsquarters); assay: Pre-emergence herbicidal activity, warm season; type: in vivo, Chenopodium album; settings: GR80 = lowest tested rate (300, 100, 30, 10 g/ha) with 80% or greater inhibition; approx. 14 days after treating; 30/21° C.
How it was run: as §1

[7] = test system: GALAP (catchweed bedstraw); assay: Pre-emergence herbicidal activity, cool season; type: in vivo, Galium aparine; settings: lowest tested rate with 80% or greater inhibition; rates 300, 100, 30, 10 g/ha; about 14 days
How it was run: as §1

[8] = test system: SORHA (johnsongrass (seedling)); assay: Pre-emergence herbicidal activity, warm season; type: in vivo, Sorghum halepense; settings: GR80 = lowest tested rate (300, 100, 30, 10 g/ha) with 80% or greater inhibition; approx. 14 days after treating; 30/21° C.
How it was run: as §1

BROTE (downy brome) = assay: Pre-emergence herbicidal activity, cool season; type: in vivo, Bromus tectorum; settings: GR80 = lowest tested rate (300, 100, 30, 10 g/ha) with 80% or greater inhibition; approx. 14 days after treating; 18/13° C.
Experimental: as §3, §4, §5, §6

SOLNI (black nightshade) = assay: Pre-emergence herbicidal activity, warm season; type: in vivo, Solanum nigrum; settings: GR80 = lowest tested rate (300, 100, 30, 10 g/ha) with 80% or greater inhibition; approx. 14 days after treating; 30/21° C.
How it was run: as §1

ALOMY (blackgrass) = assay: Pre-emergence herbicidal activity, cool season; type: in vivo, Alopecurus myosuroides; settings: GR80 = lowest tested rate (300, 100, 30, 10 g/ha) with 80% or greater inhibition; approx. 14 days after treating; 18/13° C.
How it was run: as §2

LOLMG (annual ryegrass) = assay: Pre-emergence herbicidal activity, cool season; type: in vivo, Lolium multiflorum; settings: GR80 = lowest tested rate (300, 100, 30, 10 g/ha) with 80% or greater inhibition; approx. 14 days after treating; 18/13° C.
How it was run: as §1

[9] = test system: AGRRE (quackgrass (seedling)); assay: Pre-emergence herbicidal activity, cool season; type: in vivo, Elymus repens; settings: GR80 = lowest tested rate (300, 100, 30, 10 g/ha) with 80% or greater inhibition; approx. 14 days after treating; 18/13° C.
Experimental: as §3, §4, §5, §6

Compound | Pre-emergence activity (GR80) SETFA (SETFA (giant foxtail)) [g/ha] | Pre-emergence activity (GR80) PANDI (PANDI (fall panicum)) [g/ha] | Pre-emergence activity GR80, SINAR (SINAR (wild mustard)) [g/ha] | Pre-emergence activity (GR80) PANMI [1] [g/ha] | Pre-emergence activity (GR80) AGSST [2] [g/ha] | Pre-emergence activity (GR80) SETVI (SETVI (green foxtail)) [g/ha] | Pre-emergence activity (GR80) ECHCG (ECHCG (barnyardgrass)) [g/ha] | Pre-emergence activity GR80, SASKR (SASKR (russian thistle)) | Pre-emergence activity GR80, POLCO (POLCO (wild buckwheat)) | Pre-emergence activity GR80, STEME (STEME (common chickweed)) | Pre-emergence activity GR80, VERPE [4] [g/ha] | Pre-emergence activity GR80, LAMPU [5] | Pre-emergence activity GR80, GALAP [7] | further results
CCSC(F)(F)S(=O)(=O)c1ncn(C(=O)N(C)C)n1 [Example 49] | 300 | 300 | 300 | 300 | 100 | 300 | 300 | [empty] | [empty] | 300 g/ha | 300 | 300 g/ha | 300 g/ha | Pre-emergence activity (GR80) POROL (POROL (common purslane)): 300 g/ha; Pre-emergence activity (GR80) SORVU (SORVU (shattercane)): 300 g/ha; Pre-emergence activity (GR80) AVEFA (AVEFA (wild oat)): 300 g/ha; Pre-emergence activity (GR80) BRAPP [3]: 300 g/ha; Pre-emergence activity (GR80) CONAR (CONAR (field bindweed)): 300 g/ha; Pre-emergence activity (GR80) CHEAL [6]: 300 g/ha; Pre-emergence activity (GR80) SORHA [8]: 300 g/ha
CCSC(F)(F)S(=O)(=O)c1ncn(C(=O)N(C)CCOC)n1 [Example 52] | 300 | 30 | 300 | 100 | 300 | 300 | 300 | 100 g/ha | [empty] | [empty] | 30 | [empty] | [empty] | Pre-emergence activity (GR80) BROTE (BROTE (downy brome)): 300 g/ha; Pre-emergence activity (GR80) SOLNI (SOLNI (black nightshade)): 300 g/ha; Pre-emergence activity (GR80) ALOMY (ALOMY (blackgrass)): 300 g/ha; Pre-emergence activity (GR80) LOLMG (LOLMG (annual ryegrass)): 300 g/ha; Pre-emergence activity (GR80) AGRRE [9]: 100 g/ha

Reference: patent US6461997B1, “Triazole sulfones having herbicidal activity” (Monsanto Technology LLC, priority 1999, dated 2002)
